Source: US9006221B2, “Method of modulating ship activity” (H. Lee Moffitt Cancer Center and Reserach Institute, Inc., priority 2008, dated 2015)

Key:
SHIP1 = biological target: T1, SHIP1 (Mus musculus, UniProt Q9ES52); assay: Fluorescence polarization (FP) assay of SHIP1 enzymatic activity; assay type: biochemical; conditions: confirmatory FP assay of screening hits
T1 construct: The asterisk in lanes 1 and 3 indicates the ˜145 kD full-length SHIP protein; His tag (C); made in house; host or cells: E. coli Rosetta-Gami 2 (DE3) pLys
T1 sequence (Q9ES52 1-1191): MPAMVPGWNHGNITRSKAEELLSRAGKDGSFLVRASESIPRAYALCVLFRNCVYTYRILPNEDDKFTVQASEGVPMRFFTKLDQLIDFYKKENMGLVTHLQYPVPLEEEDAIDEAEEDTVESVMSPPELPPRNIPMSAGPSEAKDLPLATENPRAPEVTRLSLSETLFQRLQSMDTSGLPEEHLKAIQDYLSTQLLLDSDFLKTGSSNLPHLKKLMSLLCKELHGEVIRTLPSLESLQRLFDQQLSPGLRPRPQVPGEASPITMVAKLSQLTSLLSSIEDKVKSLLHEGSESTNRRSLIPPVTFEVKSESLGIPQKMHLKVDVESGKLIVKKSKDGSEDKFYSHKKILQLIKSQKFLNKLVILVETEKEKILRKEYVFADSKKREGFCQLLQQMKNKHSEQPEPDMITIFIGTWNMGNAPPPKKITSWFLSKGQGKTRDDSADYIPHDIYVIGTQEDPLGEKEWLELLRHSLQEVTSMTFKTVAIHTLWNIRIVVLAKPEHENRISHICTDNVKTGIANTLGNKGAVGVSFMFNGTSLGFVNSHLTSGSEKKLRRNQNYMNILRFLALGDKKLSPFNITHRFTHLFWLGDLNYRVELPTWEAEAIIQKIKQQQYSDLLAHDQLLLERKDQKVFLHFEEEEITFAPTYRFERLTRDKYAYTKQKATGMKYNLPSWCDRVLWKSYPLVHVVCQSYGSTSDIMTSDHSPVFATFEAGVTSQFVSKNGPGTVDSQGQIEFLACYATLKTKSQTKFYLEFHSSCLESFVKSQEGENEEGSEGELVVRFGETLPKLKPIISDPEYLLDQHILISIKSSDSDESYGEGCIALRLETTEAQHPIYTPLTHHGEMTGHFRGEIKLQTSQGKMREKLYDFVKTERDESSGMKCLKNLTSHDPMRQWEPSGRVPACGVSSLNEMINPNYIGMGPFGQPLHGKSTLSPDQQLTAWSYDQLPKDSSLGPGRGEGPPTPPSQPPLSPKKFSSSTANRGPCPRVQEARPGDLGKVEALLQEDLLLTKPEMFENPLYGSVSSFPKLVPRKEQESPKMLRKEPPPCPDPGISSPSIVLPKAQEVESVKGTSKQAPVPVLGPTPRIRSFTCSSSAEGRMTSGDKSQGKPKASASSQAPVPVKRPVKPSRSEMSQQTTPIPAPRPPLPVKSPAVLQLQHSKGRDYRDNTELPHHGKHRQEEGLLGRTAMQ
From the text: SHIP is detectable in this expression system as a ˜145 kD protein (FIG. 1a, lane 1). Because of an in-frame Histidine (His) tag on the COOH terminus of SHIP, it can then be purified from E. coli lysates by FPLC over a Ni-containing resin. (FIG. 1a, lane 3). Purified SHIP was routinely obtained in sufficient quantities, using this E. coli expression system and FPLC purification, to conduct high-throughput screening (HTS) of chemical libraries for compounds that inhibit SHIP activity. However, prior to screening, a fluorescence polarization (FP) assay that detects SHIP activity in either a 96- or […] format, seen in FIG. 1b, screen was established. SHIP generates PI(3,4)P2 from its PI(3,4,5)P3 substrate. In the FP assay enzymatic generation of PI(3,4)P2 by SHIP reduces polarized fluorescence (mP) because the fluorescent PI(3,4)P2 “probe” is displaced from a detector protein that binds specifically to PI(3,4)P2. The FP assay is highly specific for SHIP activity in these lysates. No significant 5′-inositol phosphatase activity was detected in E. coli lysates harboring an ‘empty’ pet24b expression vector insert when FPLC fractions where SHIP typically elutes with the imidazole step gradient are analyzed in the FP assay (FIG. 1c).
After preparing purified SHIP and establishing the FP assay, two different chemical libraries, comprising a total of ˜2100 different chemical compounds, were screened. Seventeen compounds capable of inhibiting SHIP activity at μM concentrations were identified in this screen. The compounds were verified for SHIP activity inhibition by repeating the FP assay with the compounds obtained from their respective wells in the replicates of the masterplates for these libraries FIGS. 2-6).
A fluorescence polarization (FP) assay to detect and quantify SHIP2 activity has been previously described [Drees B E, et al., Comb Chem High Throughput Screen (2003) 6(4):321-330], but no assay has been described for the detection of SHIP1. A fluorescence polarization (FP) assay was developed to detect the activity of recombinant SHIP1 (see FIGS. 15a and b) and the FP assay was utilized as a rapid screen to detect compounds in chemical libraries that have inhibitory activity against SHIP1. This screen identified 3α-aminocholestane as a potent inhibitor of SHIP1 enzymatic activity (FIG. 15c). […] This high degree of selectivity could be important, since loss of PTEN function promotes malignancy in parenchymal and hematopoietic tissues. [Yuan T L & Cantley L C Oncogene (2008) 27(41):5497-5510; Zhang J, et al., Nature (2006) 441(7092):518-522; Yilmaz O H, et al., Nature (2006) 441(7092):475-482]
Assay of SHIP1 enzymatic activity: A fluorescent polarization (FP) assay that detects the 5′-inositol phosphatase activity of SHIP1 was developed based on a previously established protocol [Drees B E, et al., Comb Chem High Throughput Screen (2003) 6(4):321-330] and was obtained from Echelon Biosciences (Salt Lake City, USA). Modifications of the protocol included the application of SHIP1 in the assay and an increase in the concentration of MgCl2 to […] to maximize the activity of SHIP1 in this assay. Each enzymatic reaction was performed in a 96 well working plate and added in the following order and concentration: Recombinant SHIP1 (0.1 μg) in PBS+20 mM MgCl2, 100 μM of each individual compound from the NCI Diversity Set and then PI(3,4,5)P3 substrate diluted 1:10 in H2O. The enzymatic reaction was incubated for 30 min at room temperature. The detector, reaction mixture and probe were then combined according to the SHIP2 protocol. Malachite Green Phosphatase Assay Kit was obtained from Echelon Biosciences (Salt Lake City, USA). Assays for SHIP2 were performed according to the manufacturer's protocol. The concentration of SHIP1 and SHIP2 per reaction mixture was […]. PTEN was used at the concentration recommended by the manufacturer.

[1] = tested on: priming of allogeneic T cell responses by C57Bl6/J splenocytes; assay: One-way mixed leukocyte reaction (MLR), stimulator splenocytes treated in vitro; assay type: cell-based, mouse; conditions: splenocytes cultured with compound 72 hr, added at 0, 24 and 48 hr
Method: Mean proliferation of 100K BALB/C responders as measured by ^3H-Thymidine uptake after exposure to 200K irradiated BL6 stimulators that were treated with the indicated compound, 1×DMSO or 1× EtOH prior to initiation of the mixed leukocyte reaction (MLR). 1×DMSO serves as the allogeneic MLR positive control for all compounds with the exception of HLM85321 for which 1× EtOH is the positive control. [*p<0.05, **p<0.01].
Spleen cells and lymphe node LN cells are normally robust stimulators of allogeneic T cell responses in the one-way mixed leukocyte reaction (MLR) assay, but they are very poor stimulators when obtained from mice with germline or induced SHIP-deficiency. […]
Mixed leukocyte reactions (MLR): Following RBC lysis, irradiated (2000 Rads) BL6 splenocytes (stimulators) at 8×10^5 cells/well were combined with BALB/c splenocytes (responders) at 4×10^5 cells/well in a one-way MLR assay. […] Incorporated [3H]thymidine was quantitated using a Packard TopCount NXT. Specific [3H]thymidine incorporation into genomic DNA was calculated as the average of the mean (±SEM) of sextuplicate wells. […]

Structure (SMILES) | SHIP inhibitory activity in FP assay (SHIP1) | ability of splenocytes to prime allogeneic T cell responses by BALB/C responders (3H-thymidine uptake) [1]
CCOC(=O)c1c(C)c(C)n2c1NC(=O)C2 [NSC 624983] | SHIP inhibitory activity | –
O=C1CN2CCN(CC2)CC(=O)Nc2ccc(cc2)S(=O)(=O)c2ccc(cc2)NC(=O)CN2CCN(CC2)CC(=O)Nc2ccc(cc2)S(=O)(=O)c2ccc(cc2)N1 [NSC 36806] | SHIP inhibitory activity | –
Cc1ccc(C)c(/C(=N/N=C(N)N)C2CC2)c1.Cl [NSC75513, 2-[(E)-[cyclopropyl-(2,5-dimethylphenyl)methylidene]amino]guanidine chloride] | – | significantly inhibited
O=C1OC2(c3ccc(O)cc3Oc3cc(O)ccc32)c2c1c(-c1ccccc1)c(-c1ccccc1)c(-c1ccccc1)c2-c1ccccc1 [NSC 119886] | SHIP inhibitory activity | –
